# Test results from patent publication US20250282827A1, “LIPIDATED POLYMYXIN ANALOGUES” (priority 2021, published 2025).
# Like-named read-outs stand apart in the source and are kept apart here. Positions of bridges follow the written chain, without caps; N, C: chain ends. Non-standard residues stand in square brackets, D forms with d. Residues, ends and D or L forms follow the SMILES beside them. *: point of attachment. Ethyl(2-propionyloxy) = CCC(=O)OCC*; Ethyl(2-OPiv) = CC(C)(C)C(=O)OCC*; Dab = NCC[C@H](N)C(=O)O
# How the values were obtained:
# E. coli ATCC 25922 = type: cell-based, Escherichia coli
# Source text: (§1) All 81 compounds prepared in Examples 2 and 3 underwent screening against a panel of Gram-negative bacterium to assess their ability to inhibit bacterial growth. […] The median value is presented.
# A. baumannii ATCC 19606 = type: cell-based, Acinetobacter baumannii
# Source text: as §1
# P. aeruginosa ATCC 27853 = type: cell-based, Pseudomonas aeruginosa
# Source text: as §1
# K. pneumoniae ATCC 33495 = type: cell-based, Klebsiella pneumoniae
# Source text: as §1
# [1] = system: K. pneumoniae ATCC 700603; type: cell-based, Klebsiella pneumoniae
# Source text: as §1
# [2] = system: K. pneumoniae ATCC MS6671; type: cell-based, Klebsiella pneumoniae
# Source text: as §1
# E. coli ATCC MS8345 = type: cell-based, Escherichia coli
# Source text: as §1
# Expansion of the polymyxin macrocycle by substituting […]) offered little advantage in antimicrobial activity but was generally well tolerated although for A. baumanni and P. aeruginosa this was detrimental.
# [3] = system: kidney organoids derived from human induced pluripotent stem cells; experiment: Nephrotoxicity on kidney organoids, renal tubule deterioration by bright field imaging; type: cell-based; details: scored after 48 h; further: key: 1 = unaffected; 2 = mild deterioration; 3 = severe deterioration; 4 = complete deterioration
# Protocol: Selected polymyxin analogues were evaluated for cytotoxicity in physiologically relevant human kidney tissue, using kidney organoids derived from human induced pluripotent stem cells (Soo et al. 2018). Monolipidated analogues 29, 31, 33, containing a propyl, decyl or phenyl lipid, dilapidated compounds, 35, 38, 39, containing a propyl, tert-butyl or phenyl, lipid, respectively and the N-capped, di-lipidated (phenyl) 49 were selected.
# The control compound polymyxin B and the seven ClipPA analogues were tested by adding a range of concentrations (based on Gallado-Godoy et al. 2016) to the organoids at day 12 of the protocol, shown previously to correspond to optimal maturity of the organoid tissues.
# Toxicity was scored after 48 h for signs of renal tubule deterioration visible by bright field imaging (not shown).
# Vero cell line = experiment: Cellular toxicity against Vero cell line; type: cell-based
# Protocol: (§2) FIG. 6 is a graph showing cell survival as a function of the indicated compound concentration. Data are representative of triplicate experiments.
# (§3) To evaluate if the ClipPA modifications introduced any new toxicity, inhibitory concentrations against Vero and HaCaT cell lines were determined. […] The standard error for each measurement is shown.
# HaCaT cell line = experiment: Cellular toxicity against HaCaT cell line; type: cell-based
# Protocol: as §2, §3
# [4] = system: colistin-resistant E. coli; type: cell-based, Escherichia coli
# Source text: (§4) Given the promising antimicrobial activity and low toxicity associated with compounds 29, 35 and to a lesser extent 38, these compounds were progressed to a further round of phenotypic antimicrobial susceptibility testing using a panel of clinically relevant multidrug resistant Gram-negative pathogens. This panel included isolates phenotypically characterised as carbapenem-resistant Enterobacteriacea (CRE), extended spectrum β-lactamase (ESBL) producing Enterobacteriacea, colistin-resistant E. coli, carbapenem-resistant Acinetobacter baumannii (CRAB) or carbapenem-resistant Pseudomonas aeruginosa (CRPA). These isolates were chosen because each was resistant to multiple different families of clinically used antibiotics making treatment options limited and importantly, each of these pathogen types are recognised as “Priority 1: CRITICAL” on the World Health Organization (WHO) priority pathogen list for R&D of new antibiotics. Antimicrobial activity against any of these pathogens would therefore be of clinical importance. […] However, we note that many of the compounds tested in Example 4 did show good activity against colistin-resistant E. coli.
# [5] = system: carbapenem-resistant Acinetobacter baumannii (CRAB); type: cell-based
# Source text: as §4
# [6] = system: carbapenem-resistant Enterobacteriacea (CRE); type: cell-based
# Source text: as §4
# [7] = system: carbapenem-resistant Pseudomonas aeruginosa (CRPA); type: cell-based
# Source text: as §4
# [8] = system: extended spectrum β-lactamase (ESBL) producing Enterobacteriacea; type: cell-based
# Source text: as §4
Molecule,"MIC ([6]; E. cloacae, IMP-4)","MIC ([6]; E. coli, NDM-1)","MIC ([6]; K. pneumoniae, KPC-2)","MIC ([6]; K. pneumoniae, NDM-5)",MIC E. coli ATCC 25922 (E. coli ATCC 25922; ATCC 25922),MIC A. baumannii ATCC 19606 (A. baumannii ATCC 19606; ATCC 19606),MIC P. aeruginosa ATCC 27853 (P. aeruginosa ATCC 27853; ATCC 27853),MIC K. pneumoniae ATCC 33495 (K. pneumoniae ATCC 33495; ATCC 33495),MIC K. pneumoniae ATCC 700603 ([1]; ATCC 700603),MIC K. pneumoniae ATCC MS6671 ([2]; ATCC MS6671),MIC E. coli ATCC MS8345 (E. coli ATCC MS8345; ATCC MS8345),MIC ([4]; colistin-resistant),MIC ([5]; carbapenem-resistant (CRAB)),MIC ([7]; carbapenem-resistant (CRPA)),further results
"Polymyxin B [PMB, reference compound]",1 µg/mL,1 µg/mL,2 µg/mL,2 µg/mL,–,–,–,–,–,–,–,–,–,–,"MIC E. coli ATCC 25922 (E. coli ATCC 25922; median of triplicate): 0.25 µg/mL; MIC A. baumannii ATCC 19606 (A. baumannii ATCC 19606; median of triplicate): 0.5 µg/mL; MIC P. aeruginosa ATCC 27853 (P. aeruginosa ATCC 27853; median of triplicate): 0.25 µg/mL; MIC K. pneumoniae ATCC 33495 (K. pneumoniae ATCC 33495; median of triplicate): 0.5 µg/mL; MIC K. pneumoniae ATCC 700603 ([1]; median of triplicate): 0.25 µg/mL; MIC K. pneumoniae ATCC MS6671 ([2]; median of triplicate): >32 µg/mL; MIC E. coli ATCC MS8345 (E. coli ATCC MS8345; colistin-resistant strain, median of triplicate): 4 µg/mL; Score (nephrotoxicity on kidney organoids) ([3]; 100 μM): 2; Score (nephrotoxicity on kidney organoids) ([3]; 300 μM): 3; Score (nephrotoxicity on kidney organoids) ([3]; 1 mM): 4; IC50 Vero (Vero cell line; Vero cell line, ± standard error): 939.0 ± 63.32 µg/mL; IC50 HaCaT (HaCaT cell line; HaCaT cell line, ± standard error): 1998 ± 27.74 µg/mL; MIC ([4]; E. coli, CR (colistin-resistant), MCR-1): 8 µg/mL; susceptibility of colistin-resistant E. coli in words ([4]; in words): resistant; MIC ([5]; A. baumannii, CRAB, OXA-23): 1 µg/mL; MIC ([7]; P. aeruginosa, CRPA, VIM-2): 8 µg/mL; susceptibility of CRPA in words ([7]; in words): resistant; MIC ([8]; E. coli, CTX-M-15): 1 µg/mL; MIC ([8]; S. enterica, CTX-M-55): 2 µg/mL"
CCC(=O)OCCSC[C@H](N)C(=O)N[C@@H](CCN)C(=O)N[C@H](C(=O)N[C@@H](CCN)C(=O)N[C@H]1CCNC(=O)[C@H]([C@@H](C)O)NC(=O)[C@H](CCN)NC(=O)[C@H](CCN)NC(=O)[C@H](CC(C)C)NC(=O)[C@@H](Cc2ccccc2)NC(=O)[C@H](CCN)NC1=O)[C@@H](C)O [Compound 29] (H-C(Ethyl(2-propionyloxy))[Dab]T[Dab][Dab][Dab][dF]L[Dab][Dab]T; lactam 5-C),2 µg/mL,2 µg/mL,2 µg/mL,2 µg/mL,2 µg/mL,2 µg/mL,2 µg/mL,0.125 µg/mL,0.5 µg/mL,>32 µg/mL,32 µg/mL,>32 µg/mL,4 µg/mL,>32 µg/mL,IC50 Vero (Vero cell line): 2422 ± 38.98 µg/mL; amount required to cause inhibition (Vero cell line): > 500 µg/mL; fold less toxic towards Vero than Colistin or Polymyxin B (Vero cell line): ~2.5 fold; IC50 HaCaT (HaCaT cell line): 2534 ± 169.2 µg/mL; amount required to cause inhibition (HaCaT cell line): > 500 µg/mL; inhibitory effects against HaCaT compared with Colistin or Polymyxin B (HaCaT cell line): comparable
C[C@@H](O)[C@@H]1NC(=O)[C@H](CCN)NC(=O)[C@H](CCN)NC(=O)[C@H](CSCCOC(=O)C(C)(C)C)NC(=O)[C@@H](Cc2ccccc2)NC(=O)[C@H](CCN)NC(=O)[C@@H](NC(=O)[C@H](CCN)NC(=O)[C@@H](NC(=O)[C@H](CCN)NC(=O)[C@@H](N)CSCCOC(=O)C(C)(C)C)[C@@H](C)O)CCNC1=O [Compound 38] (H-C(Ethyl(2-OPiv))[Dab]T[Dab][Dab][Dab][dF]C(Ethyl(2-OPiv))[Dab][Dab]T; lactam 5-C),2 µg/mL,2 µg/mL,2 µg/mL,2 µg/mL,0.5 µg/mL,2 µg/mL,4 µg/mL,0.5 µg/mL,0.5 µg/mL,>32 µg/mL,16 µg/mL,16 µg/mL,2 µg/mL,>32 µg/mL,–
